“And” between values parts separate entries of the source, which are not always exact repeats. Equal values may be shown once. Read-outs that look alike come from different tables or passages of the source.
Assays:
[1] = system: A-549 (lung cancer cell line); test: Antiproliferative assay (MTT), A-549; assay type: cell-based; details: Homo sapiens, A549; read-out: Antiproliferative Activity IC50 ± SEM (µM) A-549
Protocol: (§1) The antiproliferative activity of pyrazoline hybrids 8–17 was tested against the four human cancer cell lines Panc-1 (pancreatic cancer cell line), MCF-7 (breast cancer cell line), HT-29 (colon cancer cell line), and A-549 (lung cancer cell line) using the MTT assay and doxorubicin as the reference drug. See Appendix SA (Supplementary File).
(§2) 4.2. Biological evaluation
(§3) 4.2.1. Cytotoxic activity using MTT Assay and evaluation of IC50 […]
(§4) 96-well flat-bottomed cell culture plates were used to seed the cells at a […]
(§5) of 10^4 cells mL-1. The medium was aspirated from all the wells of culture plates after 24 h followed by the addition of synthesized compounds (in 200 μL medium to yield a final concentration of 0.1% (v/v) dimethyl sulfoxide) into individual wells of the plates. Four wells were designated to a single compound. The plates were allowed to incubate at 37°C for 96 h. Afterwards, the medium was aspirated and 3 -[4,5-dimethylthiazol-2-yl]-2,5-diphenyltetrazolium bromide (MTT) (0.4 mg/mL) in medium was added to each well and subsequent ly incubated for 3 h. The medium was aspirated and 150 μL dimethyl sulfoxide (DMSO) was added to each well. The plates were vortexed followed by the measurement of absorbance at 540 nm on a microplate reader. The results were presented as inhibition (%) of proliferation in contrast to controls comprising 0.1% 4.2.1.2. Assay for antiproliferative effect
(§6) To explore the antiproliferative potential of compounds propidium iodide fluorescence assay was performed using different cell lines such as Panc -1 (pancreas cancer cell line), MCF-7 (breast cancer cell line), HT-29 (colon cancer cell line) and A-549 (epithelial cancer cell line), respectively. To calculate the total nuclear DNA, a fluorescent dye (propidium iodide, PI) is used which can attach to the DNA, thus offering a quick and precise technique. PI cannot pass through the cell membrane and its signal intensity can be considered as directly proportional to quantity of cellular DNA. Cells whose cell membranes are damaged or have changed permeability are counted as dead ones. The assay was performed by seeding the cells of different cell lines at a density of 3000-7500 cells/well (in200μl medium) in culture plates followed by incubation for 24h at 37 °C in humidified 5%CO2/95% air atmospheric conditions. The medium was removed; the compounds were added to the plates at 10 μM concentrations (in 0.1% DMSO) in triplicates, followed by incubation for 48h. DMSO (0.1%) was used as control. After incubation, medium was removed followed by the addition of PI (25 μl, 50μg/mL in water/medium) to each well of the plates. At - 80 °C, the plates were allowed to freeze for 24 h, followed by thawing at 25 °C. A fluorometer (Polar-Star BMG Tech) was used to record the readings at excitation and emission wavelengths of 530 and 620 nm for each well. The percentage cytotoxicity of compounds was calculated using […]
(§7) Where ATC= Absorbance of treated cells and AC= Absorbance of control. Erlotinib was used as positive control in the assay. […]

[2] = system: HT-29 (colon cancer cell line); test: Antiproliferative assay (MTT), HT-29; assay type: cell-based; details: Homo sapiens, read-out: Antiproliferative Activity IC50 ± SEM (µM) HT-29
Protocol: as §1, with “File). […]” for “File).”
(§8) 4.2.1.2. Assay for antiproliferative effect
as §6, §7

[3] = system: four human cancer cell lines (A-549, MCF-7, Panc-1, HT-29); test: Antiproliferative assay, mean of four cancer cell lines (GI50); assay type: cell-based; details: mean over A-549, MCF-7, Panc-1, HT-29
[4] = system: Panc-1 (pancreatic cancer cell line); test: Antiproliferative assay (MTT), Panc-1; assay type: cell-based; details: Homo sapiens, read-out: Antiproliferative Activity IC50 ± SEM (µM) Panc-1
Protocol: as §1, with “File). […]” for “File).”
as §8, §6, §7

[5] = Cell viability assay (MTT) on normal mammary epithelial cells; assay type: cell-based; details: human, MCF-10A normal mammary gland epithelial cells, MCF-10A cells, four days
Protocol: To test the viability of new substances, the epithelial (MCF-10A) cell line of the normal human mammary gland was used. Compounds 8–17 were incubated for four days on MCF-10A cells before being tested for viability using the MTT assay. According to Table 1, none of the substances tested were cytotoxic, and cell viability at 50 µM was greater than 87% for the compounds tested.
The normal human mammary gland epithelial (MCF-10A) cell line was used to test the viability of new compounds [46, 47]. See Appendix SA (Supplementary File).
as §2
4.2.1. Cytotoxic activity using MTT Assay and evaluation of IC50
MTT assay was performed to investigate the effect of the synthesized compounds on mammary epithelial cells (MCF-10A). The cells were propagated in medium consisting of Ham's F-12 medium/ Dulbecco's modified Eagle's medium (DMEM) (1:1) supplemented with 10% foetal calf serum, 2 mM glutamine, insulin (10 μg/mL), hydrocortisone (500 ng/mL) and epidermal growth factor (20 ng/mL). Trypsin ethylenediamine tetra acetic acid (EDTA) was used to passage the cells after every 2-3 days. 96-well flat-bottomed cell culture plates were used to seed the cells at a […]
as §5, with “The results were presented as inhibition (%) of proliferation in contrast to controls comprising 0.1% 4.2.1.2. Assay for antiproliferative effect” left out

[6] = system: MCF-7 (breast cancer cell line); test: Antiproliferative assay (MTT), MCF-7; assay type: cell-based; details: Homo sapiens, MCF7; read-out: Antiproliferative Activity IC50 ± SEM (µM) MCF-7
Protocol: as §1, §2, §3, §4, §5, §6, §7

[7] = biological target: T1, EGFR (Homo sapiens, UniProt P00533); test: EGFR inhibitory assay; assay type: biochemical; details: read-out: EGFR Inhibition IC50 ± SEM
T1 construct: 645–1186); His6 (N); made in house; host or cells: Sf-9 insect cells (baculovirus; pBlueBacHis2B / pFASTBacHTc
T1 sequence (P00533 669-1210): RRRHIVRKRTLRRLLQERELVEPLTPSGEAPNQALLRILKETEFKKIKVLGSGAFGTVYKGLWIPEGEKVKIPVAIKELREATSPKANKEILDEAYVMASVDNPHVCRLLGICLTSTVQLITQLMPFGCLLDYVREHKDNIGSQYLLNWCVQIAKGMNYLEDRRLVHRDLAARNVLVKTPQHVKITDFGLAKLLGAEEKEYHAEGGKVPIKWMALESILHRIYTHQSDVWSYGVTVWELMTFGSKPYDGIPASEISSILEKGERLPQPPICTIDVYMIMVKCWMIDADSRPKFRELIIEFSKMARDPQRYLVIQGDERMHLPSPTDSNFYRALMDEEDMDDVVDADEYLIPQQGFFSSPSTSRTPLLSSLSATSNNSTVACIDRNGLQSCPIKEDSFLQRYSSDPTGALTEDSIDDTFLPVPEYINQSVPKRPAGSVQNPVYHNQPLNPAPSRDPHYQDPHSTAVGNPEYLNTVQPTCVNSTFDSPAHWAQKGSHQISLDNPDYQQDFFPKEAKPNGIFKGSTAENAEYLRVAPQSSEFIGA
Protocol: 4.2.2. EGFR inhibitory assay
Baculoviral expression vectors including pBlueBacHis2B and pFASTBacHTc were used […]
(1 picture or pasted object on this page, not shown here)
5ʹ upstream to the EGFR sequence comprised a sequence that encoded (His)6. Sf-9 cells were infected for 72h for protein expression. The pellets of Sf-9 cells were solubilized in a buffer containing sodium vanadate (100 μM), aprotinin (10 μg/mL), triton (1%), HEPES […]
centrifugation for 20 min.
Histidine-linked proteins were first eluted with 250 and then […]
enhancement solution was added to each well and the signal was recorded at excitation and […]
The autophosphorylation percentage inhibition by compounds was calculated using the following equation: […]

[8] = biological target: BRAF^V600E; test: BRAF^V600E inhibitory assay
Target sequence in this assay (P28028 whole entry V585E): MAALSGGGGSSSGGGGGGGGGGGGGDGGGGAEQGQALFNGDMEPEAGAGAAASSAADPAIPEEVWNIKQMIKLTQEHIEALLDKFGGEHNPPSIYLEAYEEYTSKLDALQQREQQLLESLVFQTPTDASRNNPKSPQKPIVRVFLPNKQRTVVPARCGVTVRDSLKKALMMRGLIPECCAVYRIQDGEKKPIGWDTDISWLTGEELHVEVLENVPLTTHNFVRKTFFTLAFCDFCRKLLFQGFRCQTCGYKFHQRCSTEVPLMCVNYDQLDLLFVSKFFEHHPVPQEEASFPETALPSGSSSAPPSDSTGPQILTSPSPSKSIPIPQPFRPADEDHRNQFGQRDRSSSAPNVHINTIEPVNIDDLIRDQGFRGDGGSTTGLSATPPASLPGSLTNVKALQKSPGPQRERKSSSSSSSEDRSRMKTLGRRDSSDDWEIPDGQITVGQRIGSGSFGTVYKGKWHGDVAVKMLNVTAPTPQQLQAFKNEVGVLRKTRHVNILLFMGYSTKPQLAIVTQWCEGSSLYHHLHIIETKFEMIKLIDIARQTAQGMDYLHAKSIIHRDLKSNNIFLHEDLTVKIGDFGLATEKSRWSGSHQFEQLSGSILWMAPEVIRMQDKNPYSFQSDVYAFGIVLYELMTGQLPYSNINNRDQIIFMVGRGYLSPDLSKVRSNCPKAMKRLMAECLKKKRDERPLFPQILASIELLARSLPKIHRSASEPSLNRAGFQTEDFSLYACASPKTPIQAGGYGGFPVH
Protocol: V600E mutant BRAF kinase assay was performed to investigate the activity of tested compounds against BRAF. Mouse full-length GST-tagged BRAFV600E (7.5 ng, Invitrogen, PV3849) was pre-incubated with drug (1 µL) and assay dilution buffer (4 µL) for 60 min at 25 °C. In assay dilution buffer, a solution (5 µL) containing MgCl2 (30 mM), ATP (200 µM), recombinant human full length (200 ng) and N-terminal His-tagged MEK1 (Invitrogen) was added to start the assay, subsequent to incubation for 25 min at 25 °C. The assay was stopped using 5X protein denaturing buffer (LDS) solution (5 µL). To further denature the protein, heat (70° C) was applied for 5 min.
10 µL of each reaction was loaded into the precast plates and electrophoresis was allowed to proceed. After completion of electrophoresis, the front part of the precast gel plate (holding hot ATP) was cut and afterwards cast-off. The dried gel was developed using a phosphor screen.
served as positive control.

[9] = system: BRAF^V600E; design: method as in PMID 35424523; details: cited from earlier work
[10] = biological target: T1, EGFR; design: method as in PMID 35424523; details: cited from earlier work

Q: With `O=C(COc1ccc(C2=NNC(c3ccc(Cl)cc3)C2)cc1)Nc1ccc(C2=NNC(c3ccccc3)C2)cc1` (stereo not shown) [Compound 8, 2-(4-(5-(4-Chlorophenyl)-4,5-dihydro-1H-pyrazol-3-yl)phenoxy)-N-(4-(5-phenyl-4,5-dihydro-1H-pyrazol-3-yl)phenyl)acetamide] as the molecule, how does the IC50 [1] read?
A: 4.3 ± 0.4 µM

Q: And the IC50 [2]?
A: 4.5 ± 0.4 µM

Q: And the IC50 [3]?
A: 4400 nM

Q: And the IC50 [4]?
A: 4.6 ± 0.4 µM

Q: What about the viability at 96 h, 50 µM [5] of the same molecule?
A: 90%

Q: And the IC50 [6]?
A: 4.1 ± 0.4 µM

Q: Which IC50 [1] does the source give for `COc1ccc(C2CC(c3ccc(NC(=O)COc4ccc(C5=NNC(c6ccc(Cl)cc6)C5)cc4)cc3)=NN2)cc1` (stereo not shown) [Compound 9, 2-(4-(5-(4-Chlorophenyl)-4,5-dihydro-1H-pyrazol-3-yl)phenoxy)-N-(4-(5-(4-methoxyphenyl)-4,5-dihydro-1H-pyrazol-3-yl)phenyl)acetamide] here?
A: 2.2 ± 0.2 µM

Q: What about the IC50 [2] of the same molecule?
A: 2.5 ± 0.2 µM

Q: What about the IC50 [3] of the same molecule?
A: 2300 nM

Q: What about the IC50 [4] of the same molecule?
A: 2.6 ± 0.2 µM

Q: And the viability at 96 h, 50 µM [5]?
A: 89%

Q: And the IC50 [6]?
A: 1.9 ± 0.1 µM

Q: Which IC50 [1] does the source give for `O=C(COc1ccc(C2=NNC(c3ccc(Cl)cc3)C2)cc1)Nc1ccc(C2=NNC(c3ccc(Br)cc3)C2)cc1` (stereo not shown) [Compound 10, 2-(4-(5-(4-Chlorophenyl)-4,5-dihydro-1H-pyrazol-3-yl)phenoxy)-N-(4-(5-(4-bromophenyl)-4,5-dihydro-1H-pyrazol-3-yl)phenyl)acetamide] here?
A: 3.2 ± 0.3 µM

Q: And the IC50 [2]?
A: 3.1 ± 0.3 µM

Q: And the IC50 [3]?
A: 3100 nM

Q: What about the IC50 [4] of the same molecule?
A: 3.2 ± 0.3 µM

Q: And the viability at 96 h, 50 µM [5]?
A: 89%

Q: And the IC50 [6]?
A: 2.9 ± 0.2 µM

Q: What does the source list for `O=C(COc1ccc(C2=NNC(c3ccc(Cl)cc3)C2)cc1)Nc1ccc(C2=NNC(c3ccc(Cl)cc3)C2)cc1` (stereo not shown) [Compound 11, 2-(4-(5-(4-Chlorophenyl)-4,5-dihydro-1H-pyrazol-3-yl)phenoxy)-N-(4-(5-(4-chlorophenyl)-4,5-dihydro-1H-pyrazol-3-yl)phenyl)acetamide]?
A: IC50 [1]: 2.9 ± 0.2 µM; IC50 [2]: 3 ± 0.2 µM; IC50 [3]: 2900 nM; IC50 [4]: 2.9 ± 0.2 µM; viability at 96 h, 50 µM [5]: 87%; IC50 [6]: 2.7 ± 0.2 µM

Q: With `COc1ccc(C2CC(c3ccc(OCC(=O)Nc4ccc(C5=NNC(c6ccc(C)cc6C)C5)cc4)cc3)=NN2)cc1` (stereo not shown) [Compound 13, 2-(4-(5-(4-Methoxyphenyl)-4,5-dihydro-1H-pyrazol-3-yl)phenoxy)-N-(4-(5-(2,4-dimethylphenyl)-4,5-dihydro-1H-pyrazol-3-yl)phenyl)acetamide] as the molecule, how does the IC50 [1] read?
A: 4.8 ± 0.4 µM

Q: And the IC50 [2]?
A: 5 ± 0.4 µM

Q: And the IC50 [3]?
A: 4800 nM

Q: What about the IC50 [4] of the same molecule?
A: 4.9 ± 0.4 µM

Q: And the viability at 96 h, 50 µM [5]?
A: 87%

Q: And the IC50 [6]?
A: 4.6 ± 0.4 µM

Q: For `COc1ccc(C2CC(c3ccc(OCC(=O)Nc4ccc(C5=NNC(c6ccc(Br)cc6)C5)cc4)cc3)=NN2)cc1` (stereo not shown) [Compound 14, 2-(4-(5-(4-Methoxyphenyl)-4,5-dihydro-1H-pyrazol-3-yl)phenoxy)-N-(4-(5-(4-bromophenyl)-4,5-dihydro-1H-pyrazol-3-yl)phenyl)acetamide], which IC50 [7] is on record?
A: 104 ± 9 nM

Q: What about the IC50 [1] of the same molecule?
A: 1.8 ± 0.1 µM

Q: And the IC50 [8]?
A: 125 ± 10 nM

Q: And the IC50 [2]?
A: 2 ± 0.1 µM

Q: And the IC50 [3]?
A: 1850 nM

Q: And the IC50 [4]?
A: 2 ± 0.1 µM

Q: What about the viability at 96 h, 50 µM [5] of the same molecule?
A: 89%

Q: What about the IC50 [6] of the same molecule?
A: 1.6 ± 0.1 µM

Q: What does the source list for `COc1ccc(C2CC(c3ccc(OCC(=O)Nc4ccc(C5=NNC(c6ccc(Cl)cc6)C5)cc4)cc3)=NN2)cc1` (stereo not shown) [Compound 15, 2-(4-(5-(4-Methoxyphenyl)-4,5-dihydro-1H-pyrazol-3-yl)phenoxy)-N-(4-(5-(4-chlorophenyl)-4,5-dihydro-1H-pyrazol-3-yl)phenyl)acetamide]?
A: IC50 [7]: 93 ± 7 nM; IC50 [1]: 1.4 ± 0.1 µM; IC50 [8]: 98 ± 8 nM; IC50 [2]: 1.7 ± 0.1 µM; IC50 [3]: 1500 nM; IC50 [4]: 1.7 ± 0.1 µM; viability at 96 h, 50 µM [5]: 90%; IC50 [6]: 1.2 ± 0.1 µM

Q: What does the source list for `COc1ccc(C2CC(c3ccc(OCC(=O)Nc4ccc(C5=NNC(c6ccc(F)cc6)C5)cc4)cc3)=NN2)cc1` (stereo not shown) [Compound 16, 2-(4-(5-(4-Methoxyphenyl)-4,5-dihydro-1H-pyrazol-3-yl)phenoxy)-N-(4-(5-(4-fluorophenyl)-4,5-dihydro-1H-pyrazol-3-yl)phenyl)acetamide]?
A: IC50 [1]: 3.7 ± 0.3 µM; IC50 [2]: 3.9 ± 0.3 µM; IC50 [3]: 3700 nM; IC50 [4]: 3.8 ± 0.3 µM; viability at 96 h, 50 µM [5]: 89%; IC50 [6]: 3.5 ± 0.3 µM

Q: Which results are given for `COc1cccc2c1C(=O)c1c(O)c3c(c(O)c1C2=O)C[C@@](O)(C(=O)CO)C[C@@H]3O[C@H]1C[C@H](N)[C@H](O)[C@H](C)O1` [Doxorubicin, reference compound]?
A: IC50 [1]: 1.4 ± 0.08 µM; IC50 [2]: 1.2 ± 0.03 µM; IC50 [3]: 1100 nM; IC50 [4]: 1 ± 0.02 µM; IC50 [6]: 0.9 ± 0.02 µM

Q: For `Cc1c(Nc2nc3c(C(=O)NN)c(N)sc3s2)c(=O)n(-c2ccccc2)n1C` [II], which IC50 [9] is on record?
A: 88 nM and 90 nM

Q: What about the IC50 [10] of the same molecule?
A: 20 nM

Q: Which results are given for `Cc1c(NC2=NC(=O)CS2)c(=O)n(-c2ccccc2)n1C` [I]?
A: IC50 [9]: 2030 nM; IC50 [10]: 22 nM and 20 nM

Reference: article PMC10218941, “Design, Synthesis, Antiproliferative Actions, and DFT Studies of New Bis–Pyrazoline Derivatives as Dual EGFR/BRAF^V600E Inhibitors” (International Journal of Molecular Sciences, 2023)
